Experimental data published in paper PMC3514216, “SRC Homology 2 Domain Binding Sites in Insulin, IGF-1 and FGF receptor mediated signaling networks reveal an extensive potential interactome” (Cell Communication and Signaling : CCS, 2012).

Test system: panel of 50 SH2 domains
Assay: SPOT peptide array probed with each of 50 GST-SH2 domains
Type: binding
Conditions: for SH2 Domains >3X / 2X < SH2 Domains < 3X: SPOT192 peptide array; for SH2 Domains >3X: list of GST-SH2 domains with spot intensity >3X array mean (array-positive); for 2X < SH2 Domains < 3X: list of GST-SH2 domains with spot intensity between 2X and 3X array mean (indeterminate range)
From the text: The use of addressable peptide arrays is a reproducible and semi-quantitative approach that has been extensively validated for studying protein interactions with peptide ligands. To investigate connections between SH2 domain proteins and their putative phosphorylated docking sites on cell surface receptors, we developed addressable arrays consisting of 192 phosphotyrosine peptides. This peptide set was assembled using 71 phosphotyrosine peptide motifs corresponding to all of the cytoplasmic tyrosine residues within the FGF receptors (FGFR1-4), insulin receptor (InsR) and IGF-1 receptor (IGF-1R) (Figure 1A). Activation of these receptors results in the phosphorylation of associated scaffold proteins, and so 75 phosphotyrosine peptides corresponding to a comprehensive list of tyrosine residues within insulin receptor substrates (IRS-1 and IRS-2) and fibroblast receptor substrates (FRS-2 and FRS-3) were included. In addition, 33 phosphotyrosine peptides were incorporated from the downstream signaling proteins PLC-γ1, p130Cas (BCAR1) and p62DOK1. […] These control peptides provide a reference and establish the empirical cut-off for designated binding interactions (Table 1). No discrimination was made against peptides on the basis of reported phosphorylation state in order to examine a diverse and unbiased set of motifs. The resulting set of 192 phosphotyrosine peptides and their corresponding position in the proteins of origin is noted in Additional file 1: Table S1. Addressable arrays were synthesized as membrane-bound 11-mer peptides using the SPOT synthesis technique. While the majority of SH2 domains recognize residues C-terminal to the phosphotyrosine in their cognate peptide ligands, additional contacts between SH2 domains and residues N-terminal to the phosphotyrosine are observed for the SH2 domain of Sh2d1a (SAP) and cannot be ruled out in other cases. Peptides were synthesized with six flanking residues C-terminal to the phosphotyrosine and four residues N-terminal to the phosphotyrosine.
To assess the potential network of SH2 domain interactions we selected 50 SH2 domains representing 28 of the 38 families of SH2 domains (Figure 1B) all of which we have previously shown can be expressed and purified. These include a number of extensively studied SH2 domains (Src, Grb2, PLCγ), as well as a number of less studied SH2 domains from proteins such as Shd, She, Shf, Slnk (Sh2d6), Sh2d1a (SAP), Sh2d1b (Eat-2), and Brdg1. To address potential variability in specificity within families we employed all members from the SHB, CRK, GRB2, SRC and ABL families (families are indicated with complete Capitalized lettering).
SH2 domains were arrayed as GST fusion proteins and detected using anti-GST primary antibodies and near-infrared labeled secondary antibodies. In an effort to present a dataset with minimal false positives, we chose an empirical cutoff based on the array average across all peptide spots to classify interactions (Figure 1A). In cases where the intensity of the signal for an individual SH2-domain binding event exceeded the mean intensity of all the peptides on the membrane by three-fold were scored as “array positives” [22]. Non-binding was judged in cases where the intensity of a spot was less than the mean intensity of all spots on the membrane and these were scored as “array negatives”. Peptides with signal intensities between 1X and 3X mean were scored as “indeterminate” and ascribed as neither array positive binding interactions nor array-negative non-binders. […] This signature may be indicative of promiscuity differences between phosphopeptides or there may be a subset of peptides which interact in a nonspecific fashion with either the GST fusion tag or one of the antibodies used for detection, resulting in false positives. […]

Substance	SH2 Domains >3X	2X < SH2 Domains < 3X	Other SH2 domains bound (additional array-positive SH2 domains) (SH2 domains with intensity >3X array mean, GST-SH2 0.25 μM, 1 mM DTT)
HKIEpYSRRRDA [G08]	BRDG1, BRK, PLCG2_N, SHF, TENC1	BCAR3, BMX, ITK, MIST, PLCG2_C, SHB, SYK_C	
IGSIpYLFLRKR [A17]	BCAR3, BMX, BRDG1, BRK, DAPP1, FER, MATK, MIST, PI3K1_N, PLCG2_N, PTPN11_N, PTPN11_C, RASA1_C, RIN1, Sh2b, SHB, SHF, SHD, TENC1	FGR, GRB2, PI3K1_C, PLCG2_C, SH3BP2, SHE, SYK_C	
KEEGpYELPYNP [H21]	ABL1, ABL2, BLK, BRK, FGR, FYN, HCK, ITK, LCK, LYN, NCK1, PI3K1_N, RASA1_N, RASA1_C, RIN1, SH2D1B, SHC1, SHIP1, SRC, VAV1, YES	FER, GRB7	
KKPLpYWDLYEH [H17]	ABL1, BCAR3, BMX, CRKL, DAPP1, GRB7, ITK, MATK, PLCG2_N, PLCG2_C, RASA1_N, RASA1_C, SH2D2A, SH3BP2, TENC1	PI3K1_C, Sh2b	
LEYCpYNPSHNP [E10]	GRB7		
LGPLpYASSNPE [A18]	ZAP70_N		
LIALpYTKDEYF [D03]	SH2D2A	ABL1, PLCG2_C	
LIGIpYRLCLTS [B24]		BCAR3, BRDG1, MIST, SHD	
LPNGpYPRYPSF [F24]	BRDG1, GRAP, GRB2, MIST, PTPN11_C, Sh2b, SHB, SHF	BCAR3, BMX, PLCG2_N, PLCG2_C, SHD, SYK_C, TENC1	
LTGVpYRLCLSA [D08]		BCAR3, BRDG1, MIST, TENC1	
LVALpYTRDEHF [B21]		SH2D2A	
MCKVpYSDPQPH [E02]	CRKL		
MCWQpYNPKMRP [B14]	BCAR3, BMX, BRDG1, FER, MIST, TENC1	ITK, MATK, PLCG2_N, PLCG2_C, PTPN11_C, SHB, SHF, SHD, SYK_C	
MDGGpYLDQPDN [B04]	FGR, FYN, LYN, SH2D1B, SHC1, SHIP1, SRC, YES	BLK, HCK, LCK	
MEYSpYDINRVP [E22]	ABL1		
NALGpYTVSSFS [G11]	ABL2, CRK, CRKL, GRB7, MATK, SH2D2A	ABL1	
NGILpYLEDPVN [G22]	Sh2b, SHB, SHF, SYK_C		
NGLNpYIDLDLV [C22]	BCAR3, ITK, PLCG2_C, PTPN11_N, RASA1_N, Sh2b, SHB, SHF, SHD, SHE, TENC1	DAPP1, FGR, LCK, LYN, RASA1_C, SYK_C, YES	
NKLVpYENINGL [G04]	GADS, GRAP, GRB2, GRB7, SH2D2A, SH3BP2	ABL1	
NLREpYLQARRP [E08]	BRDG1, DAPP1, MIST, PLCG2_N, PTPN11_C, Sh2b, SHB, SHF, SHD, SYK_C, TENC1	BCAR3, BMX, PTPN11_N, SHE	
NLREpYLRARRP [E20]	BCAR3, BMX, BRDG1, MIST, PLCG2_N, RIN1, SHF, SHD, TENC1	BRK, DAPP1, FER, PI3K1_N, PLCG2_C, PTPN11_C, Sh2b, SHB	

Substance	SH2 Domains >3X	2X < SH2 Domains < 3X	Other SH2 domains bound (additional array-positive SH2 domains) (SH2 domains with intensity >3X array mean, GST-SH2 0.25 μM, 1 mM DTT)
NPGFpYVEANPM [H03]	ZAP70_N	PI3K1_C	
NPGNpYTARIQA [B08]	BRDG1, MIST, PLCG2_N, PTPN11_C, SHF, SHD, SYK_C	DAPP1, Sh2b, SH3BP2, SHB, SHE	
NSALpYSQVQKS [H24]	BCAR3, BRDG1, CRK, CRKL, PTPN11_C, SH2D1B, SHC1, SHIP1	ABL2, BMX, FER, PTPN11_N, RIN1	
PCSVpYVPDEWE [A20]	BMX, DAPP1, ITK, PLCG2_N, PLCG2_C, RASA1_N, RASA1_C, SH2D1B, VAV1	FGR, FYN, MATK, SH2D2A, SHC1	
PFEQpYSPGGQD [F12]		ZAP70_N	
PGLDpYSFDTCK [F09]	ABL1, CRK, CRKL, HCK, GRB7, SHIP1, SRC, ZAP70_N	FGR, SHC1	
PGLEpYCYNPSH [E09]	ABL1, GRB7, ZAP70_N		
PGMEpYSYDINR [E21]	BRDG1, GRB7	LCK, RASA1_N	
PKCTpYENVTGG [G13]	GADS, GRB2, GRB7, SH3BP2	GRAP, MIST	
PLSDpYMNLDFS [D24]	GADS, GRAP, GRB2, RASA1_N, SYK_C	ABL1, GRB7, PI3K1_C, PLCG2_N, RASA1_C	
PMHNpYVNTENV [G07]	GADS, GRAP, GRB2, SH3BP2	PI3K1_C, VAV1	
PNGDpYLNVSPS [D21]	GADS, GRAP, GRB2, GRB7, VAV1	HCK, PI3K1_N, SH2D1B, SHIP1	
PNGHpYILSRGG [C02]	BRDG1, CRK, DAPP1, MIST, PTPN11_C, RASA1_C, SHB, SHF, SHD, SYK_C, TENC1	BCAR3, BMX, FER, PLCG2_N, Sh2b, SHE	
PPALpYAEPLDS [11-mer phosphotyrosine peptide, p62DOK1 (Y296)]			Abl1, Nck1, Vav1, Zap70_N
PPALpYAEPLDS [H15]	ABL1, ITK, NCK1, RASA1_N, RASA1_C, VAV1, ZAP70_N	ABL2	
PQDIpYDVPPVR [H11]	CRK, CRKL, NCK1, SHIP1, ZAP70_N	FGR, FYN, LCK, LYN	
PQGLpYDLPREP [H20]	ABL1, CRK, CRKL, NCK1, ZAP70_N	HCK	
PRLEpYYESEKK [C24]		ZAP70_N	
PRQSpYVDTSPA [C20]	PI3K1_C		
PSDApYYGPEDP [C10]	DAPP1, PLCG2_N, PLCG2_C	BLK, BMX, LCK, RASA1_N	
PTYFpYVTDYLD [A15]	BCAR3, BRK, ITK, MATK, PLCG2_N, PLCG2_C, RASA1_N, SH2D2A, SLNK, SYK_C, VAV1	DAPP1, RIN1, SH2D1B, TENC1	

Substance	SH2 Domains >3X	2X < SH2 Domains < 3X	Other SH2 domains bound (additional array-positive SH2 domains) (SH2 domains with intensity >3X array mean, GST-SH2 0.25 μM, 1 mM DTT)
PVAPpYWTSPEK [E01]		ABL1	
PVFFpYVQAKTG [B09]	BRDG1, MIST, Sh2b, SYK_C	BCAR3, RASA1_C, SHF, TENC1	
PVLSpYYSLPRS [C12]	CRK, CRKL, Sh2b, SYK_C	BRDG1, SHF	
QDSLpYSDPLDS [H16]	ABL1, FYN, HCK, LCK, LYN, NCK1, RASA1_C, SRC, ZAP70_N	BLK, FGR, SHIP1	
QDSWpYQALLQL [B22]	ABL2, BCAR3, CRK, MATK, SH2D2A, SYK_C, TENC1, VAV1	BMX, GADS, RIN1, Sh2b, SHD	
QEGWpYRALTDL [D05]	CRK	ABL1, ABL2, TENC1	
QGYVpYEAAQPE [H09]	VAV1	ZAP70_N	
QQGLpYQVPGPS [H07]	CRK, CRKL		
QSHTpYVNTPAS [G12]	GADS, GRAP, GRB2, GRB7, VAV1	ABL1, SH2D2A	
QVHTpYVNTTGV [G02]	GADS, GRAP, GRB2, GRB7, PI3K1_N, PI3K1_C	ABL1, ZAP70_N	
RGMEYpLASKKA [E12]	BCAR3, BRDG1, TENC1, ZAP70_N	BMX, FER, MIST, PLCG2_N, SHB, SHF	
RGMEpYLASQKC [E24]	BRDG1, SHF	BCAR3, PLCG2_N, PLCG2_C, SHB, SHD, ZAP70_N	
RGMQpYLESRKA [F15]	BCAR3, BRDG1, TENC1	BMX, ITK, MIST, PLCG2_N, PLCG2_C, SHF	
RKRTpYSLTTPA [D13]	BCAR3, BRDG1, ITK, PLCG2_N, TENC1	BMX, BRK, MIST, SHB, SHF	
RKVGpYLRKPKS [B18]	BCAR3, BMX, BRDG1, BRK, FER, PI3K1_N, RIN1, TENC1	MATK, MIST, PLCG2_N, PTPN11_C, SHB, SHF, SHD	
RLEYpYENEKKW [B20]	ABL1, ABL2, BMX, BRK, FER, FGR, HCK, GADS, GRAP, GRB2, GRB7, MATK, MIST, PI3K1_N, PI3K1_C, RIN1, SH2D1B, SH2D2A, SH3BP2, SHF, TENC1, VAV1	BCAR3, BRDG1, CRK, ITK, PLCG2_N, PTPN11_N, PTPN11_C, Sh2b, SHC1, SHD, SRC	
RLEYpYESEKKW [D01]	SH3BP2	BRDG1, FER, MIST, PTPN11_C, Sh2b, SH2D1B	
RQLNpYIQVDLE [G09]	BCAR3, BMX, BRDG1, DAPP1, ITK, MIST, PLCG2_C, PTPN11_N, RASA1_N, SHB, SHF, SHD, SHE, SYK_C, VAV1, ZAP70_N	PTPN11_C, Sh2b	
RQLNpYIQVELK [G14]	BCAR3, MIST, PTPN11_N, SHE	BRDG1, SHD, TENC1	
RRYGpYDSNLFS [F23]	ABL1, BCAR3, BMX, BRDG1, CRK, CRKL, FER, MATK, SHB, SHD, TENC1	PLCG2_N, PTPN11_C, SH2D2A, SHF	
